From patent publication US12319655B2, “RAF kinase inhibitors and methods of use thereof” (Deciphera Pharmaceuticals, LLC, priority 2021, dated 2025) come the findings set out here.

The test concerns H2405 cells. As to the kind of experiment: H2405 Cell Proliferation Assay (2). Format: cell-based. The following applies: Homo sapiens, NCI-H2405. The procedure: H2405 Cell Proliferation Assay (2)
H2405 cells (catalog #CRL-5994) are obtained from the American Type Culture Collect (ATTC, Manassas, VA). Briefly, cells were grown in RPMI 1640 supplemented with 5% characterized fetal bovine serum (Invitrogen, Carlsbad, CA) and 1% Penicillin/Streptomycin/L-Glutamine at 37° C., 5% CO2, and 95% humidity. Cells are expanded until reaching 70-95% confluency at which point they are sub-cultured or harvested for assay use. A serial dilution of test compound is dispensed into a 384-well black clear bottom plate in triplicate. Seven hundred fifty cells are added per well in 50 μL complete growth medium in the 384-well plate. Plates are incubated for 67-72 h at 37° C., 5% CO2, and 95% humidity. At the end of the incubation, 10 μL of a 440 μM solution of resazurin (Sigma, St. Louis, MO) in PBS is added to each well of the plate and plates are incubated for an additional 5-6 h at 37° C., 5% CO2, and 95% humidity. Plates are read on a Synergy2 or equivalent reader (Biotek, Winooski VT) using an excitation of 540 nm and an emission of 600 nm. Data is analyzed using Prism software (GraphPad, San Diego, CA) to calculate IC50 values

In the case of `CNC(=O)c1cc(-c2cncc(-c3cc(NC(=O)c4ccnc(C(C)C)c4)ccc3C)c2)ncn1` [Example 446], the IC50 lay in the range of 100 to 500 nM.

With `Cc1ccc(NC(=O)c2ccnc(C(C)(C)F)c2)cc1-c1ccnc(-c2ccnc(C(=O)NCCO)c2)c1` [Example 448], the half-inhibitory concentration (IC50) was 100 to 500 nM.

Turning to `CNC(=O)c1cc(-c2cc(-c3cc(NC(=O)c4ccnc(C(C)(C)F)c4)ccc3C)cc(OCCO)n2)ccn1` [Example 449], the IC50 was no more than 100 nM.

In the case of `Cc1ccc(NC(=O)c2ccnc(C(C)(C)F)c2)cc1-c1ccnc(-c2ccnc(C(=O)NC3CN(C)C3)c2)c1` [Example 450], the IC50 is 100 to 500 nM.

As for `CNC(=N)c1cc(-c2cc(-c3cc(NC(=O)c4ccnc(C(C)(C)F)c4)ccc3C)ccn2)ccn1` [Example 452], the IC50 lay within 100 to 500 nM.

Take `Cc1ccc(NC(=O)c2ccnc(C(C)(C)F)c2)cc1-c1ccnc(-c2ccnc(C(=O)NCCN(C)C)c2)c1` [Example 453]: the 50% inhibitory concentration (IC50) was 100 to 500 nM.

As to `Cc1ncc(NC(=O)c2ccnc(C(C)(C)F)c2)cc1-c1ccnc(-c2ccnc(NC(=O)C3CC3)c2)c1` [Example 454], the IC50 is no more than 100 nM.

Consider `Cc1ccc(NC(=O)c2ccnc(C(C)(C)F)c2)cc1-c1ccnc(-c2ccnc(NC(=O)C3CC3)c2)c1` [Example 455], for which the half-maximal inhibitory concentration (IC50) was no more than 100 nM.

As for `Cc1ccc(NC(=O)c2ccnc(C(C)(C)C#N)c2)cc1-c1ccnc(-c2ccnc(NC(=O)C3CC3)c2)c1` [Example 456], the IC50 is no more than 100 nM.

Consider `Cc1ccc(NC(=O)c2ccnc(C3(C#N)CC3)c2)cc1-c1ccnc(-c2ccnc(NC(=O)C3CC3)c2)c1` [Example 457], for which the IC50 is no more than 100 nM.

With `Cc1ccc(NC(=O)c2ccnc(C3CC3)c2)cc1-c1ccnc(-c2ccnc(NC(=O)C3CC3)c2)c1` [Example 458], the IC50 was no more than 100 nM.

Turning to `Cc1ccc(NC(=O)c2ccnc(C(C)(F)F)c2)cc1-c1ccnc(-c2ccnc(NC(=O)C3CC3)c2)c1` [Example 459], the IC50 was no more than 100 nM.

In the case of `CNC(=O)c1cc(-c2cc(-c3cc(NC(=O)c4ccnc(C5CC5)c4)ccc3C)ccn2)ccn1` [Example 460], the IC50 lay in the range of 100 to 500 nM.

For `Cc1ncc(NC(=O)c2ccnc(C3(C#N)CC3)c2)cc1-c1ccnc(-c2ccnc(NC(=O)C3CC3)c2)c1` [Example 461], the IC50 was no more than 100 nM.

Take `CNC(=O)c1cc(-c2cc(-c3cc(NC(=O)c4ccnc(C5CC5)c4)cnc3C)ccn2)ccn1` [Example 462]: the IC50 was in the range of 500 to 1000 nM.

Turning to `CNC(=O)c1cc(-c2cc(-c3cc(NC(=O)c4ccnc(C(C)C)c4)cnc3C)ccn2)ccn1` [Example 465], the half-maximal inhibitory concentration (IC50) fell in the range of 100 to 500 nM.

`Cc1ncc(NC(=O)c2ccnc(C(C)(F)F)c2)cc1-c1ccnc(-c2ccnc(NC(=O)C3CC3)c2)c1` [Example 466]: the IC50 lay within 100 to 500 nM.

Regarding `Cc1ccc(NC(=O)c2ccnc(C(C)C)c2)cc1-c1ccnc(-c2ccnc(NC(=O)C3CC3)c2)c1` [Example 467], the IC50 is no more than 100 nM.

As to `Cc1ncc(NC(=O)c2ccnc(C(C)C)c2)cc1-c1ccnc(-c2ccnc(NC(=O)C3CC3)c2)c1` [Example 468], the IC50 was no more than 100 nM.

`CNC(=O)c1cc(-c2cc(-c3cc(NC(=O)c4ccnc(C(C)(C)F)c4)ccc3C)c(F)cn2)ccn1` [Example 469]: the 50% inhibitory concentration (IC50) was 100 to 500 nM.

As for `CNC(=O)c1cc(-c2cc(-c3cc(NC(=O)c4ccnc(C(C)(C)F)c4)ccc3C)cc(C)n2)ccn1` [Example 470], the IC50 is no more than 100 nM.

Consider `CNC(=O)c1cc(-c2cc(-c3cc(NC(=O)c4ccnc(C(C)(C)F)c4)ccc3C(F)(F)F)ccn2)ccn1` [Example 471], for which the IC50 lay within 1000 to 10000 nM.

Regarding `CNC(=O)c1cc(-c2cc(-c3cc(NC(=O)c4ccnc(C(C)(C)F)c4)ccc3C)c(C)cn2)ccn1` [Example 472], the concentration for half-maximal inhibition (IC50) is 100 to 500 nM.

Consider `CNC(=O)c1cc(-c2cc(-c3cc(NC(=O)c4ccnc(C(C)(C)F)c4)ccc3C)cnn2)ccn1` [Example 473], for which the half-maximal inhibitory concentration (IC50) is 100 to 500 nM.

In the case of `CNC(=O)c1cc(-c2cc(-c3cc(NC(=O)c4ccnc(C(C)(C)F)c4)ccc3C)ncn2)ccn1` [Example 474], the IC50 is no more than 100 nM.
